Results published in patent US7510704B2, “Cosmetic compositions” (Unilever Home & Personal Care USA division of Conopco, Inc., priority 2001, dated 2009).

Test system: Corynebacterium A sp. NCIMB 40928
Assay: In vitro model of fatty acid catabolism by axillary bacteria (culture viability and remaining fatty acid after 24 h)
Type: cell-based
Details: for Viability / Fatty acid utilisation: 24 h; for Viability: 35° C.; for Fatty acid utilisation: pentadecanoic acid 2.0 mg/ml
Experimental: This experiment uses the methods of WO 00/01353 to illustrate the much greater efficacy of 4-hydroxy-3-methoxybenzyl alcohol at inhibiting fatty acid catabolism by corynebacteria A, when compared with analogous materials previously disclosed in the aforementioned publication. Data illustrating the sub-lethal aspect of the inhibition are also presented.
An in vitro model system, reproducing fatty acid catabolism by axillary bacteria, was used. To each of several 250 ml baffled shake flasks was added 30 ml semi-synthetic medium (see below), supplemented with fatty acid substrate (2.0 mg/ml pentadecanoic acid) and non-fatty acid substrate (0.5 mg/ml glucose). To each flask (other than the control) was also added one of the indicated test materials, as a 10% (w/v) emulsion in semi-synthetic medium, supplemented with Gum Arabic (5.0 mg/ml). (Emulsions were formed by ultra-homogenisation at 24,000 rpm for about 1 min.) Each of the flasks was inoculated with fresh bacterial biomass (Corynebacterium A sp. NCIMB 40928), pre-grown for 24 h in TSBT (see below), to give starting optical densities (A590) of 1.0-2.0. Following inoculation, the flasks were incubated aerobically at 35° C., with agitation (130 rpm), for 24 hours. After this time, culture viability and remaining fatty acid were determined by methodology as described in […].
Composition of semi-synthetic medium in g/l: KH2PO4 (1.6), (NH4)2HPO4 (5.0), Na2SO4 (0.38), yeast nitrogen base (3.35) (Difco), yeast extract (0.5) (Beta Lab), Tween 80™ (0.2), Triton X-100™ (0.2), and MgCl2.6H2O (0.5).
Composition of TSBT (Tween-supplemented Tryptone soya broth) in g/l: Tryptone soya broth (30.0) (Merck), yeast extract (10.0) (Beta Lab), and Tween 80™ (1.0).
NCIMB 40928 in terms of culture viability and fatty acid utilisation. Various concentrations of active were investigated. It will be noted that for each of the Examples, culture viability was not substantially affected.

| SMILES | Viability (active conc. 0.1 g/l) | Fatty acid utilisation (active conc. 0.1 g/l) | Viability (active conc. 0.25 g/l) | Fatty acid utilisation (active conc. 0.25 g/l) | Viability (active conc. 0.5 g/l) | Fatty acid utilisation (active conc. 0.5 g/l) | Viability (active conc. 1.0 g/l) | Fatty acid utilisation (active conc. 1.0 g/l) | Viability (active conc. 5.0 g/l) | Fatty acid utilisation (active conc. 5.0 g/l) | Viability (active conc. 10.0 g/l) | Fatty acid utilisation (active conc. 10.0 g/l) | Reduction of the fatty acid catabolism of corynebacteria A (at a concentration of 0.5 mg/ml or less) | Concentration producing sub-lethal inhibition (greater than 50% inhibition of pentadecanoic acid utilisation without reduction in cell viability, ≦1 log10 CFU/ml) (corynebacteria A) |
| --- | --- | --- | --- | --- | --- | --- | --- | --- | --- | --- | --- | --- | --- | --- |
| OCc1ccc(O)cc1 [A, 4-hydroxybenzyl alcohol] | 8.69 log10CFU/ml | 100% | 8.85 log10CFU/ml | 97% | 8.17 log10CFU/ml | 21% | – | – | – | – | – | – | – | – |
| COc1ccc(CO)cc1O [B, 3-hydroxy-4-methoxybenzyl alcohol] | – | – | – | – | – | – | 8.90 log10CFU/ml | 99% | 8.99 log10CFU/ml | 86% | 8.62 log10CFU/ml | 29% | – | – |
| COc1cc(CCO)ccc1O [C, 4-hydroxy-3-methoxyphenethyl alcohol] | – | – | – | – | – | – | 8.80 log10CFU/ml | 99% | 8.60 log10CFU/ml | 59% | 8.09 log10CFU/ml | 26% | – | – |
| COc1cc(CO)ccc1O [Example 1, 4-hydroxy-3-methoxybenzyl alcohol] | 8.91 log10CFU/ml | 65% | 8.88 log10CFU/ml | 40% | 8.28 log10CFU/ml | 20% | – | – | – | – | – | – | greater than 50% | ≤ 0.25 mg/ml |
